This assay concerns CD2F1 mice, L1210 leukemia ip, survival T/C. The assay is described as follows: NCI In Vivo Anticancer Drug Screen. Data for tumor model L1210 Leukemia (intraperitoneal) in CD2F1 (CDF1) mice. The conditions noted are these: endpoint: mean survival time, higher = longer survival. Summed up:
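Compound-dosed mice with transplantable tumor versus matched vehicle controls; endpoint ratio T/C reported.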

Setting [1] is: dose: 100.0 mg/kg/injection, schedule: Q01DX009 (ip), vehicle: saline with Tween-80.
[2] abbreviates: dose: 100.0 mg/kg/injection, schedule: Q04DX003 (ip), vehicle: saline with Tween-80.
Where [3] appears, read: dose: 200.0 mg/kg/injection, schedule: Q01DX009 (ip), vehicle: saline with Tween-80.
Where [4] appears, read: dose: 200.0 mg/kg/injection, schedule: Q04DX003 (ip), vehicle: saline with Tween-80.
[5] abbreviates: dose: 400.0 mg/kg/injection, schedule: Q01DX009 (ip), vehicle: saline with Tween-80.
The mark [6] stands for this setting: dose: 400.0 mg/kg/injection, schedule: Q04DX003 (ip), vehicle: saline with Tween-80.
The mark [7] stands for this setting: dose: 100.0 mg/kg/injection, schedule: Q01DX001 (ip), vehicle: saline with Tween-80.
[8] abbreviates: dose: 200.0 mg/kg/injection, schedule: Q01DX001 (ip), vehicle: saline with Tween-80.
The mark [9] stands for this setting: dose: 400.0 mg/kg/injection, schedule: Q01DX001 (ip), vehicle: saline with Tween-80.
[10] abbreviates: dose: 200.0 mg/kg/injection, schedule: Q01DX001 (ip), vehicle: saline.
Where [11] appears, read: dose: 400.0 mg/kg/injection, schedule: Q04DX003 (ip), vehicle: saline.
The mark [12] stands for this setting: dose: 50.0 mg/kg/injection, schedule: Q04DX003 (ip), vehicle: saline with Tween-80.
Setting [13] is: dose: 200.0 mg/kg/injection, schedule: Q04DX003 (ip), vehicle: other.
Where [14] appears, read: dose: 50.0 mg/kg/injection, schedule: Q01DX009 (ip), vehicle: saline with Tween-80.

“And” between values parts separate entries of the source, which are not always exact repeats. Equal values may be shown once. Inconclusive results and toxic doses are left out.

As to `CCOC(=O)C(=CNc1ccc(C)cn1)C(=O)OCC`, the T/C by setting is: under setting [1], 93 % of control; under setting [2], 92 % of control; under setting [3], 98 % of control; under setting [4], 95 % of control; under setting [5], 97 % of control; under setting [6], 103 % of control.

As to `CON(C)CCOC(=O)c1ccc([N+](=O)[O-])cc1`, the T/C is, setting by setting: under setting [7], 100 % of control; under setting [8], 107 % of control; under setting [9], 105 % of control.

With `CCN(CCNc1ccc(C)c2sc3ccccc3c(=O)c12)CC(C)(C)O`, the T/C is, setting by setting: under setting [10], 112 % of control; under setting [11], 174 % of control.

Take `O=C1CSc2nc3ccccc3n21`: the T/C (dose: 100.0 mg/kg/injection, schedule: Q01DX009 (ip), vehicle: other) is 98 % of control; the T/C (dose: 200.0 mg/kg/injection, schedule: Q01DX009 (ip), vehicle: other) is 98 % of control; the T/C (dose: 400.0 mg/kg/injection, schedule: Q01DX009 (ip), vehicle: other) is 105 % of control.

As for `CC(=O)Nc1ccc(Br)c(NC(C)=O)n1`, the T/C is 95 % of control under setting [2], 98 % of control under setting [4] and 104 % of control under setting [6].

Consider `O=C(CCCCC(=O)N/N=C/c1ccco1)N/N=C/c1ccco1`, for which the T/C is 92 % of control under setting [1], 88 % of control under setting [3] and 93 % of control under setting [5].

For the compound `C=C(C)C1CCC2(C(=O)O)CCC3(C)C(CCC4C5(C)CCC(OC(C)=O)C(C)(C)C5CCC43C)C12` (configuration not stated), the T/C reads like this: (dose: 100.0 mg/kg/injection, schedule: Q01DX001 (ip), vehicle: Klucel (hydroxypropylcellulose) (HPC)) 93 % of control; (dose: 200.0 mg/kg/injection, schedule: Q01DX001 (ip), vehicle: Klucel (hydroxypropylcellulose) (HPC)) 93 % of control; (dose: 400.0 mg/kg/injection, schedule: Q01DX001 (ip), vehicle: Klucel (hydroxypropylcellulose) (HPC)) 91 % of control.

For `CCCCCCCCCCCCCCCC(=O)N1CCCN(C(=O)CCCCCCCCCCCCCCC)C1`, the T/C is, setting by setting: (dose: 75.0 mg/kg/injection, schedule: Q04DX003 (ip), vehicle: saline) 89 % of control; (dose: 150.0 mg/kg/injection, schedule: Q04DX003 (ip), vehicle: saline) 89 % of control; (dose: 300.0 mg/kg/injection, schedule: Q04DX003 (ip), vehicle: saline) 103 % of control.

`CC1=C(C)C2(C)C(C)(O)C(C)(O)C12C` (configuration not stated): the T/C (dose: 18.75 mg/kg/injection, schedule: Q01DX009 (ip), vehicle: saline with Tween-80) was 98 % of control; the T/C (dose: 37.5 mg/kg/injection, schedule: Q01DX009 (ip), vehicle: saline with Tween-80) was 93 % of control; the T/C (dose: 75.0 mg/kg/injection, schedule: Q01DX009 (ip), vehicle: saline with Tween-80) was 96 % of control.

Turning to `Cc1ccc(C(=O)CCCCl)c(C)c1`, the T/C was 111 % of control under setting [1], 104 % of control under setting [3] and 104 % of control under setting [5].

Consider `c1ccc(-c2nn[nH]n2)nc1`, for which the T/C (dose: 100.0 mg/kg/injection, schedule: Q01DX001 (ip), vehicle: saline) is 101 % of control; the T/C (dose: 100.0 mg/kg/injection, schedule: Q04DX003 (ip), vehicle: saline) is 90 % of control and 104 % of control; the T/C under setting [10] was 101 % of control; the T/C (dose: 200.0 mg/kg/injection, schedule: Q04DX003 (ip), vehicle: saline) is 102 % of control and 104 % of control; the T/C under setting [11] is 94 % of control and 108 % of control.

Regarding `Cc1cc(C)c(NC(=O)c2cccc(Cl)c2)c(C)c1`, the T/C reads like this: under setting [1], 104 % of control; under setting [2], 94 % of control; under setting [3], 98 % of control; under setting [4], 96 % of control; under setting [5], 105 % of control; under setting [6], 88 % of control.

As for `O=C(O)C1C2C=CC(C2)C1C(=O)Nc1ccccc1` (configuration not stated), the T/C was 97 % of control under setting [1], 97 % of control under setting [3] and 96 % of control under setting [5].

Regarding `N/C=N/O`, the T/C reads like this: (dose: 66.0 mg/kg/injection, schedule: Q01DX009 (ip), vehicle: saline) 112 % of control; (dose: 100.0 mg/kg/injection, schedule: Q01DX009 (ip), vehicle: saline) 120 % of control and 110 % of control; (dose: 400.0 mg/kg/injection, schedule: Q01DX009 (ip), vehicle: saline) 114 % of control.

With `[O-][n+]1cc(-c2ccccc2)cc2ccccc21`, the T/C under setting [12] was 97 % of control and the T/C under setting [2] is 97 % of control.

With `C=C(NC(C)=O)C(=O)O`, the T/C reads like this: under setting [7], 96 % of control; under setting [1], 103 % of control; under setting [8], 97 % of control; under setting [3], 89 % of control; under setting [9], 97 % of control.

Take `COc1ccc(/C=C(/c2ccccc2)[Si](C)(C)C)cc1`: the T/C was 91 % of control (dose: 100.0 mg/kg/injection, schedule: Q04DX003 (ip), vehicle: other); 96 % of control under setting [13]; 94 % of control (dose: 400.0 mg/kg/injection, schedule: Q04DX003 (ip), vehicle: other).

For `COc1cc(OC)c(NC(=O)Nc2ccc(Nc3ccccc3)cc2)cc1Cl`, the T/C is, setting by setting: under setting [14], 90 % of control; under setting [1], 94 % of control; under setting [3], 90 % of control.

Consider `CCCC(N)C(=O)O` (configuration not stated), for which the T/C is 106 % of control under setting [14], 98 % of control under setting [1] and 104 % of control under setting [3].

Turning to `O=C(O)/C=C/C(=O)NCCc1c[nH]c2ccccc12`, the T/C reads like this: under setting [1], 98 % of control; under setting [2], 93 % of control; under setting [3], 95 % of control; under setting [4], 95 % of control; under setting [5], 95 % of control; under setting [6], 95 % of control.

On to `N#CCCCCCCN=[N+]=[N-]`, for which the T/C is, setting by setting: (dose: 75.0 mg/kg/injection, schedule: Q01DX001 (ip), vehicle: saline) 98 % of control; (dose: 150.0 mg/kg/injection, schedule: Q01DX001 (ip), vehicle: saline) 98 % of control.

As to `CN=C1CCCCN1`, the T/C was 103 % of control (dose: 100.0 mg/kg/injection, schedule: Q04DX003 (ip), vehicle: saline sonified); 104 % of control (dose: 200.0 mg/kg/injection, schedule: Q04DX003 (ip), vehicle: saline sonified); 103 % of control (dose: 400.0 mg/kg/injection, schedule: Q04DX003 (ip), vehicle: saline sonified).

For the compound `NC(C(=O)O)C(N)C(=O)O` (configuration not stated), the T/C by setting is: under setting [1], 94 % of control; under setting [3], 96 % of control; under setting [5], 96 % of control.

Turning to `CCOCc1cc([N+](=O)[O-])cc([N+](=O)[O-])c1O`, the T/C is, setting by setting: (dose: 12.5 mg/kg/injection, schedule: Q04DX003 (ip), vehicle: saline with Tween-80) 98 % of control; (dose: 25.0 mg/kg/injection, schedule: Q04DX003 (ip), vehicle: saline with Tween-80) 98 % of control; under setting [12], 100 % of control.

On to `CCOC(=O)N1CCN(N=Nc2c(C(=O)OC)n[nH]c2C)CC1`, for which the T/C (dose: 75.0 mg/kg/injection, schedule: Q01DX001 (ip), vehicle: other) was 103 % of control; the T/C (dose: 150.0 mg/kg/injection, schedule: Q01DX001 (ip), vehicle: other) was 105 % of control; the T/C (dose: 300.0 mg/kg/injection, schedule: Q01DX001 (ip), vehicle: other) was 105 % of control.

As to `CCCCCCC(C)OC(=O)CCCc1ccc(N(CCCl)CCCl)cc1` (configuration not stated), the T/C is 104 % of control (dose: 50.0 mg/kg/injection, schedule: Q01DX009 (ip), vehicle: acetone); 104 % of control (dose: 100.0 mg/kg/injection, schedule: Q01DX009 (ip), vehicle: acetone); 104 % of control (dose: 200.0 mg/kg/injection, schedule: Q01DX009 (ip), vehicle: acetone).

For `O=C(C[n+]1cc2ccccc2cc1Cl)c1ccccc1`, the T/C is, setting by setting: (dose: 100.0 mg/kg/injection, schedule: Q04DX003 (ip), vehicle: Klucel (hydroxypropylcellulose) (HPC)) 97 % of control; (dose: 200.0 mg/kg/injection, schedule: Q04DX003 (ip), vehicle: Klucel (hydroxypropylcellulose) (HPC)) 88 % of control.

Regarding `O=c1oc(-c2ccccc2)nc2c(Cl)ccc(Cl)c12`, the T/C was 107 % of control (dose: 90.0 mg/kg/injection, schedule: Q04DX003 (ip), vehicle: other); 97 % of control (dose: 135.0 mg/kg/injection, schedule: Q04DX003 (ip), vehicle: other); 119 % of control under setting [13]; 102 % of control (dose: 300.0 mg/kg/injection, schedule: Q04DX003 (ip), vehicle: other).

In the case of `CNC(=O)c1ccc(C(=O)NC)cc1`, the T/C is 86 % of control under setting [1], 94 % of control under setting [3] and 96 % of control under setting [5].

For the origin of these results see PubChem BioAssay AID256 (DTP/NCI, 2004).
